# From patent US12404345B2, “Humanized antibodies against iRHOM2” (SCIRHOM GMBH, priority 2021, dated 2025)
# Tested on: PMA-induced release of endogenous TGFα from human PC3 prostate cancer cells
# Test: ELISA-based TGFα release assay, PMA-induced, PC3 cells
# Format: cell-based
# Details: PC-3, Batimastat 10 μM, PMA 25 ng/ml, 2 hours
# Protocol: In the following study, ELISA-based TGFα release assays were performed to analyze the inhibitory effects of the antibodies of the invention on PMA-induced release of endogenous TGFα from human PC3 prostate cancer cells.
# In brief, on day 1, Nunc black MaxiSorp® 96-well plates (Thermo Fisher Scientific, USA) were coated overnight with 100 μl per well of goat anti-human TGFα capture antibody (provided as part of the DuoSet ELISA kit) at 0.4 μg/ml TBS at 4° C. 80,000 PC3 (European Collection of Authenticated Cell Cultures, UK) cells in 100 μl of normal growth medium were seeded in each well of F-bottom 96-well cell culture plates (Corning, USA) and incubated at 37° C., 5% CO2 overnight. On day 2, the capture antibody solution was removed and MaxiSorp® plates were blocked with 300 μl per well of TBS, 1% BSA at room temperature for 1-2 hours. […] Using an infinite M1000 (Tecan Group, Switzerland) microplate reader, the fluorescence of each well was collected at an excitation wavelength of 435 nm and an emission wavelength of 555 nm.
compound,measurement,value
CNC(=O)[C@H](Cc1ccccc1)NC(=O)[C@H](CC(C)C)[C@H](CSc1cccs1)C(=O)NO [Batimastat],inhibition at 10 µM,90.7%
